{"source": "the OPERA property sets (Mansouri et al. 2018)"}
{"details": "not given", "units": {"boiling point": "°C", "melting point": "°C", "solubility": "µM"}}
{"smiles": "O=C=O", "boiling point": -78.5, "log10 vapour pressure (mmHg)": 4.68, "melting point": -56.5}
{"smiles": "CCC(C)(O)CC(C)C", "note": "(stereo not drawn)", "boiling point": 152}
{"smiles": "C1CCN(SSN2CCCCC2)CC1", "melting point": 64.2}
{"smiles": "O=c1ccc2cc(Cl)ccc2o1", "melting point": 165}
{"smiles": "CCCCCCCC(=O)Oc1c(I)cc(C#N)cc1I", "melting point": 59.5}
{"smiles": "C=Cc1ccco1", "boiling point": 99.5, "melting point": -94}
{"smiles": "O=C(O)CCCC(=O)c1ccccc1", "melting point": 127}
{"smiles": "c1ccc(CN(Cc2ccccc2)c2ccccc2)cc1", "melting point": 69}
{"smiles": "Oc1ccc2ccccc2c1/N=N/c1ccc(/N=N\\c2ccccc2)cc1", "melting point": 195}
{"smiles": "Cc1cc(N)ccc1Cl", "boiling point": 241, "melting point": 83.5, "ready biodegradability": "not readily biodegradable"}
{"smiles": "Cc1cnc(C)o1", "boiling point": 118}
{"smiles": "CCCCCc1ccc(O)cc1", "boiling point": 250, "melting point": 23}
{"smiles": "CC(=O)OCC(=O)[C@@]1(O)[C@@H](C)C[C@H]2[C@@H]3CCC4=CC(=O)C=C[C@]4(C)[C@@]3(F)[C@@H](O)C[C@@]21C", "melting point": 248}
{"smiles": "Cc1ccc(Cc2ccccc2)cc1", "boiling point": 286, "melting point": -30}
{"smiles": "O=C1OC(OC2OC(=O)C(Cl)=C2Cl)C(Cl)=C1Cl", "note": "(stereo not drawn)", "melting point": 142}
{"smiles": "O=C(O)c1cc(O)c(O)c(O)c1", "ready biodegradability": "readily biodegradable"}
{"smiles": "Nc1cc(Cl)cc(C(=O)O)c1Cl", "boiling point": 312, "log10 Koc (L/kg)": 1.48, "melting point": 200, "ready biodegradability": "not readily biodegradable"}
{"smiles": "Cc1cc(C(=O)C(F)(F)F)ccc1Cl", "ready biodegradability": "not readily biodegradable"}
{"smiles": "CCCCCCCCCCCCCCCC(=O)OC(C)C", "log10 vapour pressure (mmHg)": -4.25, "melting point": 13.5}
{"smiles": "CCCCCCCC/C=C\\CCCCCCCC(=O)[O-].[NH4+]", "melting point": 71}
{"smiles": "Cc1ncc(COP(=O)(O)O)c(C=O)c1O.O", "melting point": 142}
{"smiles": "C=CCCCC(C)C", "boiling point": 113, "log10 vapour pressure (mmHg)": 1.4}
{"smiles": "CCCCCCCCCCC#N", "boiling point": 253}
{"smiles": "Nc1ccc(Cl)cc1N", "boiling point": 229, "melting point": 76}
{"smiles": "FC(F)(F)C1(F)C(F)(F)C(F)(F)C(F)(C(F)(F)F)C(F)(F)C1(F)F", "note": "(stereo not drawn)", "boiling point": 100}
{"smiles": "CC1(C)[C@H]2CC=C(CO)[C@@H]1C2", "boiling point": 222}
{"smiles": "CCCCC(C)CCCC", "boiling point": 165, "melting point": -87.7}
{"smiles": "O=C(Nc1ccc(Cl)c(Cl)c1)Nc1cc(Cl)ccc1Oc1ccc(Cl)cc1S(=O)(=O)O", "ready biodegradability": "not readily biodegradable"}
{"smiles": "CCCCCCCCCc1ccccc1", "boiling point": 280, "log10 vapour pressure (mmHg)": -2.24, "melting point": -24}
{"smiles": "CCSSCC", "boiling point": 154, "log10 Henry constant (atm·m³/mol)": -2.67, "log10 vapour pressure (mmHg)": 0.631, "melting point": -102, "solubility": 2450}
{"smiles": "NC(=O)N1CCCCC1", "melting point": 105}
{"smiles": "FC(I)I", "boiling point": 100, "melting point": -34.5}
{"smiles": "CCCCCCCCCCCCCCCC(=O)OCC", "log10 vapour pressure (mmHg)": -4.63, "melting point": 24}
{"smiles": "Oc1ccc2cccnc2c1", "melting point": 239}
{"smiles": "CNC(=O)NC(C)=O", "melting point": 180}
{"smiles": "c1ccc(Cc2ccc3ccccc3c2)cc1", "boiling point": 350, "melting point": 58}
{"smiles": "CN1CCCC1", "boiling point": 81, "log10 Henry constant (atm·m³/mol)": -4.52, "log10 Koa": 3.64, "log10 vapour pressure (mmHg)": 2}
{"smiles": "c1ccc(C2CO2)cc1", "note": "(stereo not drawn)", "boiling point": 194, "log10 vapour pressure (mmHg)": -0.523, "melting point": -35.6, "ready biodegradability": "readily biodegradable"}
{"smiles": "C[Si](C)(C)CBr", "boiling point": 116}
{"smiles": "CCOC(=O)CCN(SN(C)C(=O)Oc1cccc2c1OC(C)(C)C2)C(C)C", "log10 vapour pressure (mmHg)": -6.7}
{"smiles": "CCOCCOCCOC(C)=O", "boiling point": 218, "log10 vapour pressure (mmHg)": -1, "melting point": -25, "ready biodegradability": "readily biodegradable"}
{"smiles": "CC(C(O)c1ccc(O)cc1)N1CCC(Cc2ccccc2)CC1", "note": "(stereo not drawn)", "melting point": 114}
{"smiles": "CNC(=S)NCc1ccccc1", "melting point": 75}
{"smiles": "CCN1C[C@]2(COC)[C@H](O)C[C@H](OC)[C@]34C1[C@H]([C@H](OC)[C@H]23)[C@]1(OC(C)=O)[C@H]2[C@@H](OC(=O)c3ccccc3)[C@](O)(C[C@H]24)[C@@H](OC)[C@@H]1O", "melting point": 204}
{"smiles": "CN1CCN(CCCN2c3ccccc3Sc3ccc(Cl)cc32)CC1", "melting point": 228}
{"smiles": "CCCC(N)=O", "boiling point": 216, "log10 vapour pressure (mmHg)": -2.41, "melting point": 115}
{"smiles": "O=C(CC(=O)C(F)(F)F)c1cccs1", "melting point": 42}
{"smiles": "CCCCCCCC/C=C\\CCCCCCCC(=O)[O-].[Na+]", "melting point": 234}
{"smiles": "C=CCNS(=O)(=O)c1cc(S(N)(=O)=O)c(Cl)cc1/N=C/C=C(/C)O", "melting point": 206}
{"smiles": "Clc1ccc2ccc(Cl)cc2c1", "log10 Koa": 6.7}
{"smiles": "C/C=C/C=O", "boiling point": 103, "log10 Henry constant (atm·m³/mol)": -4.84, "log10 vapour pressure (mmHg)": 1.48, "melting point": -76.2}
{"smiles": "CC1=CC(=O)CC(C)(C)[C@@]1(O)/C=C/C(C)=C\\C(=O)O", "melting point": 160}
{"smiles": "C1=COCCO1", "boiling point": 94.1}
{"smiles": "COc1ccc(CC#N)cc1", "boiling point": 286}
{"smiles": "COc1ccc2c(c1O)-c1c3c(cc4c1[C@H](C2)N(C)CC4)OCO3", "melting point": 200}
{"smiles": "ON=C(C(=NO)c1ccco1)c1ccco1", "melting point": 167}
{"smiles": "CNC(=O)ON=C(C)SC", "log10 Koc (L/kg)": 1.3, "log10 vapour pressure (mmHg)": -5.27, "melting point": 78}
{"smiles": "Nc1nccs1", "melting point": 93, "ready biodegradability": "not readily biodegradable"}
{"smiles": "CC(C)(C)C(=O)C(C)(C)C", "boiling point": 152, "melting point": -25.2}
{"smiles": "OC(c1ccccc1)(C(F)(F)F)C(F)(F)F", "boiling point": 160}
{"smiles": "Clc1cc(Cl)c(Cl)c(Cl)c1", "log10 Henry constant (atm·m³/mol)": -2.8, "log10 Koa": 5.55, "log10 Koc (L/kg)": 3.2, "log10 vapour pressure (mmHg)": -1.26, "melting point": 54.5}
{"smiles": "O=C(O)C(F)(F)C(F)(F)C(F)(F)C(=O)O", "melting point": 80}
{"smiles": "CC(Cl)C(Cl)(Cl)Cl", "note": "(stereo not drawn)", "boiling point": 152, "melting point": -64}
{"smiles": "Fc1ccc(F)c(F)c1F", "boiling point": 94.3, "log10 vapour pressure (mmHg)": 1.69, "melting point": -42}
{"smiles": "N#Cc1ccc(O)cc1", "melting point": 112, "ready biodegradability": "not readily biodegradable"}
{"smiles": "O=C(Cl)C(F)(F)F", "boiling point": -27, "log10 Henry constant (atm·m³/mol)": -3.35, "melting point": 146}
{"smiles": "CCCN(CCC)C(=O)C(CCC(=O)O)NC(=O)c1ccccc1", "note": "(stereo not drawn)", "melting point": 144}
{"smiles": "O=c1oc2ccccc2c(O)c1C1CC(c2ccc(-c3ccccc3)cc2)Cc2ccccc21", "note": "(stereo not drawn)", "melting point": 216}
{"smiles": "Clc1ccc(-c2ccc(Cl)c(Cl)c2)cc1Cl", "log10 Henry constant (atm·m³/mol)": -5.03, "log10 Koa": 9.7, "log10 vapour pressure (mmHg)": -4.78}
{"smiles": "C=CCC(C)(O)CC=C", "boiling point": 158}
{"smiles": "C#C/C=C\\C", "boiling point": 48.4}
{"smiles": "CC(C)C(C)(C)O", "boiling point": 118, "log10 vapour pressure (mmHg)": 0.505, "melting point": -14}
{"smiles": "CCC(=O)C=C(C)CC", "boiling point": 166}
{"smiles": "CCCCCCCCCC(=O)OC", "boiling point": 224, "log10 vapour pressure (mmHg)": -1.43, "melting point": -18}
{"smiles": "C=C1C[C@@]23CC[C@H]4[C@@](C)(CCC[C@@]4(C)C(=O)O[C@@H]4O[C@H](CO)[C@@H](O)[C@H](O)[C@H]4O)[C@@H]2CC[C@]1(O[C@@H]1O[C@H](CO)[C@@H](O)[C@H](O)[C@H]1O[C@@H]1O[C@H](CO)[C@@H](O)[C@H](O)[C@H]1O)C3", "melting point": 198}
{"smiles": "c1ccc(-c2coc(-c3ccccc3)n2)cc1", "boiling point": 339, "melting point": 103}
{"smiles": "CN(C)CC(O)CN(C)C", "boiling point": 182}
{"smiles": "Cc1cnc2c(ccc3c(C)c(C)cnc32)c1C", "melting point": 278}
{"smiles": "c1cc2cccc3c4cccc5cccc(c(c1)c23)c54", "log10 biodegradation half-life (days)": 2.95, "log10 vapour pressure (mmHg)": -8.28, "melting point": 274, "ready biodegradability": "not readily biodegradable"}
{"smiles": "CCOP(=S)(OCC)SCSCC", "log10 Koc (L/kg)": 2.7, "log10 vapour pressure (mmHg)": -3.2}
{"smiles": "C=CCN", "boiling point": 53.3, "log10 vapour pressure (mmHg)": 2.38, "melting point": -88.2}
{"smiles": "CC1=CCCC1C", "note": "(stereo not drawn)", "boiling point": 99, "melting point": -118}
{"smiles": "N#Cc1cc(Br)c(O)c(Br)c1", "log10 vapour pressure (mmHg)": -7.33, "melting point": 190, "ready biodegradability": "readily biodegradable"}
{"smiles": "NC(=O)c1ccc(Br)cc1", "melting point": 192}
{"smiles": "CCCCCCCCCCCCN(C)C", "boiling point": 260, "melting point": 22, "ready biodegradability": "readily biodegradable"}
{"smiles": "CC(=O)[O-].[Na+]", "melting point": 324}
{"smiles": "Oc1ccc([C@H](O)[C@H]2CCCCN2)cc1O", "melting point": 204}
{"smiles": "CC12CCC(C(Br)C1=O)C2(C)C", "note": "(stereo not drawn)", "boiling point": 274, "melting point": 76.5}
{"smiles": "CC[N+](C)(CC)CCOC(=O)C1c2ccccc2Oc2ccccc21.[Br-]", "melting point": 174}
{"smiles": "CC(C)CCCCCCCOC(=O)c1ccccc1C(=O)OCCCCCCCC(C)C", "log10 vapour pressure (mmHg)": -6.28, "melting point": -45.6, "ready biodegradability": "readily biodegradable"}
{"smiles": "O=C(CCCN1CCC(n2c(=O)[nH]c3ccccc32)CC1)c1ccc(F)cc1", "melting point": 171}
{"smiles": "FC(F)(F)C(=NOCC1OCCO1)c1ccc(Cl)cc1", "log10 vapour pressure (mmHg)": -3.55}
{"smiles": "Cc1ccc2ccc3cccc4ccc1c2c34", "log10 biodegradation half-life (days)": 1.96}
{"smiles": "CCOCOCC", "boiling point": 88, "log10 vapour pressure (mmHg)": 1.53, "melting point": -66.5}
{"smiles": "CC(C)C=CCl", "boiling point": 87}
{"details": "fish"}
{"smiles": "O=C(Nc1ccc(Cl)c(Cl)c1)Nc1cc(Cl)ccc1Oc1ccc(Cl)cc1S(=O)(=O)O", "log10 BCF": 1.87}
{"smiles": "Clc1cc(Cl)c(Cl)c(Cl)c1", "log10 BCF": 3.59}
{"smiles": "N#Cc1ccc(O)cc1", "log10 BCF": 0.91}
{"smiles": "Clc1ccc(-c2ccc(Cl)c(Cl)c2)cc1Cl", "log10 BCF": 4.62, "log10 biotransformation half-life (days)": 1.35}
{"smiles": "c1cc2cccc3c4cccc5cccc(c(c1)c23)c54", "log10 biotransformation half-life (days)": -0.06}
{"smiles": "CC(C)CCCCCCCOC(=O)c1ccccc1C(=O)OCCCCCCCC(C)C", "log10 BCF": 1.16}
{"smiles": "Brc1cc(Br)c(Br)c(Oc2c(Br)c(Br)c(Br)c(Br)c2Br)c1Br", "log10 BCF": 5.57}
{"smiles": "Cc1ccc2ccc3cccc4ccc1c2c34", "log10 biotransformation half-life (days)": 0.11}
